Assay [1] has as its system amnesia induced by the injection of vincristine. Briefly: Evaluation test of the social memory in the rat after lesions caused by injection of vincristine. The assay is classed as in vivo. The settings on record: vincristine-lesioned rats. The method, then:
In this model, the effects are evaluated of the products tested on amnesia induced by the injection of vincristine which induces biochemical alterations similar to the changes present in Alzheimer's disease.
The procedures used in this model, lesions caused by vincristine as well as the evaluation of the social memory are described in EP 655247.
Evaluation Test of the Social Memory in the Rat.
The dose of 1 mg/kg i.p. of tacrine is then administered to the two groups of rats.

The test system is the same in assay [2]. The settings on record: vincristine-lesioned rats; as described in EP 655247; cited from earlier work.

As for `Cl.FC(F)(F)c1cccc(C2=CCN(CCc3ccc4ccccc4c3)CC2)c1` [SR 57746A, 1-(2-naphth-2-ylethyl)-4-(3-trifluoromethylphenyl)-1,2,3,6-tetrahydropyridine hydrochloride], in assay [1] (SR 57746A alone at 5 mg/kg p.o.), the “functional recovery in terms of memory” value was “insufficient to permit functional recovery in terms of memory”. The “efficacious dose (functional recovery of memory)” value in assay [2] was 10 mg/kg. Regarding `Nc1c2c(nc3ccccc13)CCCC2` [tacrine, reference compound], the recovery of memory entry in assay [1] (solvent then tacrine 1 mg/kg i.p. (control group)) was “no recovery of memory”.

The values above are taken from patent US20050148614A1 (priority 1997, published 2005).
